Data set [1] concerns iCELL Cardiomyocytes. Nature of the data set: Cardiac safety: caspase 3 and 7 activation (Caspase-Glo 3/7) in iCELL Cardiomyocytes. The data set is classed as cell-based. From the text:
The effect of various compounds of the invention and a reference compound AZD5991 on cardiac safety was investigated by the evaluation of caspase 3 and 7 activation using Caspase-Glo 3/7 Assay (Promega; G8092) in iCELL™ Cardiomyocytes from FUJIFILM Cellular Dynamics (Catalog number: 11713). In the Caspase-Glo® 3/7 Assay, the luminescence (measured as Relative Luciferase Units, RLU) is proportional to the amount of caspase activity present in each sample.
The assay is initiated by thawing and seeding iCell® Cardiomyocytes as specified in the User Guide. After 48 hours, the cells are washed to remove unattached cells and debris and immediately treated with compounds or DMSO diluted in the maintenance medium (FCDI; cat: M1003). Compound concentrations used in this assay: 7 points 1/3 dilution curve starting at 100 uM. After 24 hours of incubation with compounds, caspase activity is measured by the addition of the Caspase-Glo® 3/7 Reagent followed by the luminescence measurement.
The analysis of the results is performed by calculation of the fold change in caspase 3/7 activity at a given compound concentration. Fold change is calculated with the formula: […]
where: • RLU Xi is the Relative Luciferase Units of sample I; • RLU BG is the Background Relative Luciferase Units; • RLU C is the Relative Luciferase Units of Control (DMSO).
The experiments were performed in technical duplicates.

Data set [2] concerns MV-4-11 cells. Nature of the data set: Induction of apoptosis in cancer cells, flow cytometry (Annexin V/PI). The data set is classed as cell-based. Particulars: MV-4-11 cells, 1, 3, 10, 30 and 100 nM, 24 hours. Here is the method:
The effect of compound 204 of the invention MV-4-11 cells was investigated using the following protocol.
MV-4-11 cells were seeded on 24-well plates (1 ml) in growth medium containing 1% FBS. Immediately after seeding, compounds in appropriate concentrations were added directly to the cell culture medium. After 24 hours incubation, cells were washed twice with cold DPBS and the staining was performed using the FITC Annexin V Apoptosis Detection Kit I (BD Pharmingen; 556547). Samples were then analyzed by flow cytometry (LSR Fortessa X-20; BD Biosciences) within 1 hr. Results were evaluated using FlowJo (V10) software.
FIG. 6 presents the induction of apoptosis in MV-4-11 cells treated with 204 at 1, 3, 10, 30, and 100 nM concentration for 24 hours, as indicated.
(In general: In flow cytometry, cells or beads pass a laser one at a time.)

As for `Cc1nn(C)c(C)c1-c1c(Cl)ccc2c(CCCOc3cccc4ccccc34)c(C(=O)O)n(CCN3CCN(C(=O)COc4cccc5c4C(=O)N(C4CCC(=O)NC4=O)C5=O)CC3)c12` (stereo not drawn) [Compound 204, 6-chloro-1-(2-(4-(2-((2-(2,6-dioxopiperidin-3-yl)-1,3-dioxoisoindolin-4-yl)oxy)acetyl)piperazin-1-yl)ethyl)-3-(3-(naphthalen-1-yloxy)propyl)-7-(1,3,5-trimethyl-1H-pyrazol-4-yl)-1H-indole-2-carboxylic acid], in data set [1] (1.2 uM, 24 hours incubation, vs DMSO), the “Fold change at 1.2 uM (caspase 3/7 activity in cardiomyocytes)” value was at most 1.5 ± 0.2. In addition, in data set [1] (as opposed to reference compound AZD5991), the “activity in caspase activity assay in cardiomyocytes” value is on record as “little to no activity”. Also, the “population of late apoptotic/cell death (Annexin+/PI+) cells” value in data set [2] is on record as “concentration dependent increase”.

The values above are taken from patent US20240294499A1, “TARGETED PROTEIN DEGRADATION USING BIFUNCTIONAL COMPOUNDS THAT BIND UBIQUITIN LIGASE AND TARGET MCL-1 PROTEIN” (Captor Therapeutics S.A., priority 2021, published 2024).
